Measured values published in patent publication US12201621B2, “Base and pharmaceutical composition containing it” (BIOTTS S.A., priority 2019, dated 2025).
Counter-ions that a name gives are not always drawn. Like-named read-outs stand apart in the source and are kept apart here.

Key:
[1] = cited from earlier work
[2] = in vivo; cited from earlier work
[3] = cited from earlier work; remark: listed apart in the source
[4] = pharmacokinetics and bioavailability after intravenous and topical administration; assay type: in vivo, Goetingen mini-pigs; conditions: intravenous administration at 1 mg/kg
[5] = in vivo; cited from earlier work; remark: listed apart in the source

## CCN(CC)CC(=O)Nc1c(C)cccc1C [lidocaine, Lidocaine]
[1]; addition of epinephrine (5 μg/ml)
  extension of the effect: 50%
[1]; aerosol
  duration of effect: 5 to 6 min
  onset of effect: 1 min
[1]; endotracheal administration
  duration of anti-arrhythmic effect: 30 to 50 min
  onset of anti-arrhythmic effect: 10 to 15 s
  time to peak anti-arrhythmic effect: 1 to 2 min
[1]; epidural administration
  duration of effect: up to 4 hours
  onset of effect: 5 to 15 min
[1]; gel
  duration of effect: 30 to 60 min
  onset of effect: 2 to 3 min
[1]; i.v. administration
  duration of anti-arrhythmic effect: 10 to 20 min
  onset of anti-arrhythmic effect: 45 to 90 s
[1]; infiltration anesthesia
  duration of effect: 30 to 60 min
  onset of effect: 0.5 to 1 min
[2]
  absorbed from the gastrointestinal tract: 30-40%
  excreted by the kidneys unchanged: 10%

## CCCCNc1ccc(C(=O)OCCN(C)C)cc1 [Tetracaine Hydrochloride]
[3]
  Water solubility: 150 mg/mL

## CCCCNc1ccc(C(=O)OCCN(C)C)cc1 [tetracaine, Tetracaine]
[4]
  clearance (printed: purified): highly purified
  distribution (printed: dispersed): highly dispersed
[5]
  hydrolysis in plasma: rapid
